≈ marks a conversion by molar mass, not a printed value.

In data set [1] the test system is NIH 3T3 mouse fibroblast cells. The data set is described as follows: MTT cytotoxicity assay, NIH 3T3. Format: cell-based. As for the experimental part: (§1) Cell cytotoxicity assay was performed using three different cell lines NIH 3T3 (mouse embryo, fibroblast cells), CC1 (rat, epithelial, liver cell) and MDBK (bovine kidney) cells using MTT (3-[4,5-dimethylthiazole-2-yl]-2,5-diphenyl-tetrazolium bromide) colorimetric assay. Briefly 3T3 were grown in DMEM, supplemented with 10% of fetal bovine serum (FBS), and 1% penicillin-streptomycin whereas CC1 (rat epithelial liver cells) were cultured in EMEM, 2 mM Glutamine, 1% Non-Essential Amino Acids (NEAA), 20 mM HEPES, 10% Foetal Bovine Serum (FBS) and 1% penicillin-streptomycin, and MDBK cells were grown in 10% of fetal bovine serum (FBS) in 75 cm^2 flask, and incubated in 5% CO2 incubator at 37° C. until they attain 70% confluency. Cells were then harvested by centrifuging at 200 g for 5 min at 25° C., counted using heamocytometer and their concentration was adjusted to 6×10^4 cells/mL. 100 μL of Cells were then plated in 96 well plate and incubated overnight. Next day the supernatant was carefully removed and 200 μL of fresh medium was added with three different concentration of compound (1, 10, 50) μg/mL. […] The extent of MTT reduction to formazan within cells was calculated by measuring the absorbance at 540 nm; using a micro plate reader (Spectra Max plus 340, Molecular Devices, Calif., USA). […] The percent inhibition was calculated by using the following formula: […]
A general note: Tetrazolium dyes change colour on reduction, which living cells bring about.

A short description of data set [2]: MTT cytotoxicity assay, NIH 3T3. Format: cell-based, mouse. Particulars: mouse, NIH 3T3 mouse embryo fibroblast cells, 48 h incubation, read-out: Cytotoxicity (IC50 μg/mL) NIH 3T3 cells. The procedure: as §1
In the next data set the test system is IL-2 production. Put plainly: IL-2 cytokine production. The data set is classed as cell-based. Particulars: read-out: IL-2 inhibition (IC50 μg/mL).
Data set [3] relates to ROS production from human neutrophils. Put plainly: Luminol enhanced chemiluminescence oxidative burst, isolated neutrophils. The conditions noted are these: Neutrophil, serum opsonized zymosan, read-out: Myeloperoxidase dependent Oxidative Burst (IC50 μg/mL) Neutrophils. The data set is classed as cell-based. The procedure:
Intracellular effect was determined using human peripheral whole blood phagocytes and isolated neutrophils and from mice peritoneum macrophages, where luminol-enhanced chemillumenescence assay was applied. The effect on myeloperoxidase independent ROS production was determined using lucigenin on murine macrophages RAW.267 cells.
Table 2. […] 267 cells (murine macrophages). DPI is used as standard drug. Reading presents mean±SD of three determinations.
Heparinized blood was obtained by vein puncture aseptically, from healthy volunteers (25-38 years age). The buffy coat containing polymorhonuclear neutrophils (PMNs) was collected by dextran sedimentation, and cells were isolated after the LSM density gradient centrifugation. […]
Luminol enhanced chemiluminescence technique was applied to study the effect of compound on ROS from phagocytes, Using whole blood, neutrophil and macrophages Briefly, 25 μL diluted whole blood (1:50 dilution in sterile HBSS^++) or 25 μL of PMNs (1×10^6), or 25 μL of isolated macrophages (1×10^6) were incubated with 25 μL of compound in triplicates and using three different concentrations (1, 10 and 100 μg/mL) using white 96 wells plates. […] Results were monitored as relative light unit (RLU) reading, with peak and total integral values set with repeated scans at 60 seconds intervals, and 1 second points measuring time.

As to `COc1c(O)cc2oc(-c3ccc(O)c(O)c3)c(O)c(=O)c2c1O` [Patuletin, 3,5,7,3′,4′-pentahydroxy-6-methoxy flavones], the “cytotoxicity on NIH 3T3 mouse fibroblast cells (in words)” value in data set [1] is “no cytotoxicity”. Also, in data set [2], the IC50 at 48 h is 36.4 ± 6.9 µg/mL (≈ 110 µM). The IC50 in the data set on IL-2 production stood at 14.8 µg/mL (≈ 44.5 µM); in data set [3], 1.2 µg/mL.
